# Read-outs that look alike come from different tables or passages of the source.
# B1: EMD72000: EGFR inhibitor listed in Table 1 (antibody, chains of the INN, looked up, V domains shown)
# VH: QVQLVQSGAEVKKPGASVKVSCKASGYTFTSHWMHWVRQAPGQGLEWIGEFNPSNGRTNYNEKFKSKATMTVDTSTNTAYMELSSLRSEDTAVYYCASRDYDYDGRYFDYWGQGTLVTVSS
# VL: DIQMTQSPSSLSASVGDRVTITCSASSSVTYMYWYQQKPGKAPKLLIYDTSNLASGVPSRFSGSGSGTDYTFTISSLQPEDIATYYCQQWSSHIFTFGQGTKVEIK
# Assays:
# [1] = test system: Glioma cell lines in vitro; details: full text: Resistant glioma expresses IGFR-1 which is further up-regulated by AG1478; effect appears mediated through PI3-K/Akt; single cell line in vitro; cited from earlier work
# [2] = test system: BT474 breast and MKN7 gastric cancer cells in vitro; details: full text: Activation of erbB2/3 heterodimers by heregulin generated resistance; no in vivo data; cited from earlier work
# Patients with NSCLC [3] = details: full text: A secondary mutation in EGFR kinase causes resistance; cited from earlier work
# [4] = test system: Multiple cell lines in vitro; details: full text: Sustained signaling through Akt or Erk may cause resistance; no in vivo data; cited from earlier work
# [5] = test system: Multiple cell lines in vitro; details: full text: Sensitivity correlated with wt EGFR number; no in vivo data; cited from earlier work
# [6] = test system: de2-7 EGFR phosphorylation in U87MG glioma cells; assay: Immunoblotting of de2-7 EGFR phosphorylation after Src-family kinase inhibitors; type: cell-based; details: 10 μM, 30 minutes or 24 h, serum starved cells
# Method: FIG. 7A-7C. Interaction between de2-7 EGFR and Src. (A) Cells were serum starved overnight prior to treatment with 10 μM PP1 or PP2 or vehicle (DMSO) for 30 minutes or 24 h prior to immunoprecipitation with mAb528, mAb806 or an irrelevant isotype control. Immunoblotting was performed with an antibody specific for Y845 of the EGFR, while total de2-7 EGFR was visualized with the rabbit c-terminal polyclonal antibody. Results shown are representative of four independent experiments. […] Mice were treated with 1 mg mAb 806 three times per week for two weeks (days 18, 20, 22, 25, 27 and 29).
# Cells were lysed in cold lysis buffer (30 mM HEPES, 150 mM NaCl, 10 mM NaF, 1% Triton X-100, 200 μM NaO3V, 0.4% H2O2 and the protease inhibitor cocktail set 1 (Calbiochem, San Diego, Calif.) containing 500 μM AEBSF, 150 nM Aprotinin, 1 μM E-64 protease inhibitor, 0.5 mM EDTA and 1 μM Leupeptin, pH 7.4). Lysates were immunoprecipitated with the mAb 806 or 528 and the resultant precipitates analyzed by immunoblotting as described by us in detail (21).
# Activation of the wt EGFR leads to the transient activation of Src kinase. In a synergistic manner, activation of Src leads to phosphorylation tyrosine 845 (Y845) on the EGFR, which is not an auto-phosphorylation site rather a target for Src phosphorylation (24). Using an antibody specific to Y845 we examined the phosphorylation of Y845 in the de2-7 EGFR.
# Patients with NSCLC [7] = details: full text: Patients with activating mutations in the EGFR kinase domain more likely to respond; not all patients with mutations respond; cited from earlier work
# [8] = test system: Multiple cell lines in vitro; details: full text: Sensitivity correlated with wt EGFR number. Constitutive active MAPK increased resistance; no in vivo data; cited from earlier work
# [9] = test system: A431 and MDA-468 breast cancer cells in vitro; details: full text: Sustained signaling through Akt causes resistance. Presence of PTEN increases effectiveness of EGFR therapeutics; no in vivo data; cited from earlier work
# [10] = test system: Multiple cell lines in vitro and xenografts; details: full text: More difficult to inhibit the phosphorylation of EGFR in the presence of ErbB2; cited from earlier work
# [11] = test system: Patients with colorectal cancer; details: full text: Response correlated with increase in EGFR copy number; small sample numbers; cited from earlier work
# [12] = test system: Multiple cell lines in vitro and xenografts; details: full text: Sensitivity correlated with wt EGFR number; cited from earlier work
molecule,measurement,setting,value
COc1cc2ncnc(Nc3cccc(Cl)c3)c2cc1OC [AG1478],Observation,[1],Resistant glioma
Cc1[nH]c2ncnc(Nc3cccc(Cl)c3)c2c1C [CGP59326],Observation,[2],Activation of erbB2/3
C#Cc1cccc(Nc2ncnc3cc(OCCOC)c(OCCOC)cc23)c1 [OSI-774],Observation,Patients with NSCLC [3],A secondary mutation
COc1cc2ncnc(Nc3cccc(Br)c3)c2cc1OC [PD153035],Observation,[4],Sustained signaling
same,Observation,[5],Sensitivity correlated
"CC(C)(C)n1nc(-c2ccc(Cl)cc2)c2c(N)ncnc21 [PP2, (4-chlorophenyl)-7-(t-butyl)pyrazolo[3,4-d]-pyrimidine]",Phosphorylation at Y845 of de2-7 EGFR,[6],rapidly blocked
same,autophosphorylation site at Y1173 of de2-7 EGFR,[6],relatively unaffected
COc1cc2ncnc(Nc3ccc(F)c(Cl)c3)c2cc1OCCCN1CCOCC1 [ZD1839],Observation,[4],Sustained signaling
same,Observation,Patients with NSCLC [7],Patients with activating
same,Observation,[8],Sensitivity correlated
same,Observation,[9],Sustained signaling
same,Observation,Patients with NSCLC [3],A secondary mutation
same,Observation,[10],More difficult to inhibit
ABX: monoclonal antibody directed to the EGFR,Observation,[11],Response correlated
B1,Observation,[12],Sensitivity correlated

# Reference: patent US9023356B2, “Treatment method using EGFR antibodies and SRC inhibitors and related formulations” (Ludwig Institute for Cancer Research Ltd, priority 2007, dated 2015)
